# Patent US10981894B2, “Melanocortin subtype-2 receptor (MC2R) antagonists and uses thereof” (Crinetics Pharmaceuticals, Inc., priority 2018, dated 2021)
# Biological target: hMC2 receptor (Homo sapiens, UniProt Q01718)
# Test: hMC2 membrane binding assay ([125I]ACTH (1-39) Tyr23, SPA)
# Design: scale not given here
# Conditions: crude hMC2R membranes from CRE-bla-CHO-K1 cells expressing hMC2 receptor and hMRAP; [125I]ACTH (1-39) Tyr23 0.2 nM; 1.5 hours at room temperature; read-out: MC2R binding potency
# Method: Crude membrane fractions are prepared from CRE-bla-CHO-K1 cells stably expressing hMC2 receptor and hMRAP accessory protein (Thermo Fisher). The cells are grown to 85-100% confluence on standard tissue culture dishes in GlutaMax DMEM growth media (Gibco) with following additives: 10% dialyzed FBS (Gemini), 0.1 mM NEAA (Gibco), 25 mM HEPES (Gibco), 5 μg/mL blasticidin (Goldbio), 100 μg/mL zeocin (Invitrogen), 600 μg/mL hygromycin (Goldbio). To prepare membranes, cells are scraped and collected in 1× Dulbecco's phosphate buffered saline (Corning) and then pelleted at 1000 RPM's. The cell pellet is reconstituted in membrane preparation buffer (20 mM HEPES, 6 mM MgCl2 and 1 mM EGTA, protease inhibitor tablets (Pierce) adjusted to pH 7.4), homogenized using a dounce homogenizer, and the resulting membrane fraction is pelleted by centrifugation at 12,000 RPM's. The membrane pellet is resuspended in membrane preparation buffer, snap freezed and stored at −80° C. for later use.
# Binding Assay for hMC2 Antagonists Protocol:
# The hMC2 membrane binding assay utilizes the following components: radiolabel [^125I]ACTH (1-39) Tyr23 (PerkinElmer), wheatgerm agglutinin coated PVT SPA beads (PerkinElmer), crude hMC2R membranes, and compounds. Briefly hMC2R membranes are incubated with SPA beads in binding assay buffer (50 mM HEPES, 5 mM MgCl2, 1 mM CaCl2, 0.2% BSA, protease inhibitor tablets (Pierce) adjusted to pH7.4) prior to assay initiation. A dose response of compound (the final concentration of compound are typically 0-10,000 nM), SPA membranes, and [^125I]ACTH (1-39) Tyr23 at a final concentration of 0.2 nM is plated in a 96-well assay plate and allowed to incubate 1.5 hours at room temperature. Assay plates are read using a Top Count NXT and Ki values for compounds are determined using a GraphPad Prism 6 non-linear regression analysis.
# hMC2 receptor, sequence (Q01718 whole entry): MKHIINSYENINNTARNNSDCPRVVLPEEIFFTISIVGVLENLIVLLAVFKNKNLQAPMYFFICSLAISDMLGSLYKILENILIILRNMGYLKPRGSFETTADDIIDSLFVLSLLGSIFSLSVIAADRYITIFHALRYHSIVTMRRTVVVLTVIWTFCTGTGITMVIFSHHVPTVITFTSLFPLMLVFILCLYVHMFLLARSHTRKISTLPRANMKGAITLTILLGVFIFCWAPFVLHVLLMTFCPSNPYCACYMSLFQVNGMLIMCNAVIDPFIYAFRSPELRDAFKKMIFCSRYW
# hMC2 receptor, sequence (Q8TCY5 whole entry partner): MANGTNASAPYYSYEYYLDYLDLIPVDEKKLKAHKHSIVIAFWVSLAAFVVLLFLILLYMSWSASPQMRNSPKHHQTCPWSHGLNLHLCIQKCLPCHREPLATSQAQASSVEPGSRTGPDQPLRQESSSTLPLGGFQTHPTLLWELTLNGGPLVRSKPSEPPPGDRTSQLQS
row,Compound,Ki [nM]
1,"CCOc1ncccc1-c1ccc(N2CCN(C(=O)c3ccc(C)cc3Cl)C[C@H]2CC)c(C(=O)NCCNC)c1F [Compound 1-113, 6-[(2R)-4-(2-chloro-4-methylbenzoyl)-2-ethylpiperazin-1-yl]-3-(2-ethoxypyridin-3-yl)-2-fluoro-N-[2-(methylamino)ethyl]benzamide]",< 10
2,"CCOc1ccccc1-c1ccc(N2CCN(C(=O)c3ccc(F)cc3-c3ccc(CN)cc3)C[C@H]2CC)c(C(=O)NCCN)c1 [Compound 1-17, N-(2-aminoethyl)-4-[(2R)-4-[4′-(aminomethyl)-5-fluoro-[1,1′-biphenyl]-2-carbonyl]-2-ethylpiperazin-1-yl]-2′-ethoxy-[1,1′-biphenyl]-3-carboxamide]",< 10
3,"CC[C@@H]1CN(C(=O)c2ccc(C(F)(F)F)cc2Cl)CCN1c1ccc(-c2ccccc2C(=O)NC)cc1C(=O)NCCN [Compound 1-20, (R)-N3′-(2-aminoethyl)-4′-(4-(2-chloro-4-(trifluoromethyl)benzoyl)-2-ethylpiperazin-1-yl)-N2-methyl-[1,1′-biphenyl]-2,3′-dicarboxamide]",10 to 100
4,"CCOc1cnccc1-c1ccc(N2CCN(C(=O)c3ccc(C(F)(F)F)cc3Cl)C[C@H]2CC)c(C(=O)NCCN)c1 [Compound 1-33, N-(2-aminoethyl)-2-[(2R)-4-[2-chloro-4-(trifluoromethyl)benzoyl]-2-ethylpiperazin-1-yl]-5-(3-ethoxypyridin-4-yl)benzamide]",10 to 100
5,"CCOc1ncccc1-c1ccc(N2CCN(C(=O)c3ccc(Cl)cc3C(F)(F)F)C[C@H]2CC)c(C(=O)NC[C@H]2CCN2)c1F [Compound 1-123, N-{[(2R)-azetidin-2-yl]methyl}-6-[(2R)-4-[4-chloro-2-(trifluoromethyl)benzoyl]-2-ethylpiperazin-1-yl]-3-(2-ethoxypyridin-3-yl)-2-fluorobenzamide]",< 10
6,"CCOc1ccccc1-c1ccc(N2CCN(C(=O)C3(C(F)(F)F)CCCC3)C[C@H]2CC)c(C(=O)NCC2CN(C)C2)n1 [Compound 1-340, 6-(2-ethoxyphenyl)-3-[(2R)-2-ethyl-4-[1-(trifluoromethyl)cyclopentanecarbonyl]piperazin-1-yl]-N-[(1-methylazetidin-3-yl)methyl]pyridine-2-carboxamide]",< 10
7,"CCOc1ncccc1-c1ccc(N2CCN(C(=O)c3c(F)cc(C)cc3-c3ccc(CN)cc3)C[C@H]2CC)c(C(=O)NCCN)c1 [Compound 1-44, N-(2-aminoethyl)-2-[(2R)-4-[4′-(aminomethyl)-3-fluoro-5-methyl-[1,1′-biphenyl]-2-carbonyl]-2-ethylpiperazin-1-yl]-5-(2-ethoxypyridin-3-yl)benzamide]",< 10
8,"CCOc1ncccc1-c1ccc(N2CCN(C(=O)c3ccc(F)cc3N3CCC(CN)C3)C[C@H]2CC)c(C(=O)NCCN)c1 (stereo partly drawn) [Compound 1-51, N-(2-aminoethyl)-2-[(2R)-4-{2-[3-(aminomethyl)pyrrolidin-1-yl]-4-fluorobenzoyl}-2-ethylpiperazin-1-yl]-5-(2-ethoxypyridin-3-yl)benzamide]",< 10
9,"CCOc1ccccc1-c1ccc(N2CCN(C(=O)c3ccc(Cl)cc3Cl)C[C@H]2CC)c(C(=O)NCCN)c1 [Compound 1-15, (R)-N-(2-aminoethyl)-4-(4-(2,4-dichlorobenzoyl)-2-ethylpiperazin-1-yl)-2′-ethoxy-[1,1′-biphenyl]-3-carboxamide]",< 10
10,"CCOc1ncccc1-c1ccc(N2CCN(C(=O)c3ccc(Cl)cc3C(F)(F)F)C[C@H]2CC)c(C(=O)NC[C@@H]2CCN2)c1F [Compound 1-112, N-{[(2S)-azetidin-2-yl]methyl}-6-[(2R)-4-[4-chloro-2-(trifluoromethyl)benzoyl]-2-ethylpiperazin-1-yl]-3-(2-ethoxypyridin-3-yl)-2-fluorobenzamide]",< 10

# Now from value to compound:
row,Ki [nM],Compound
1,< 10,"CCOc1ncccc1-c1ccc(N2CCN(C(=O)N3CCc4cccc(C#N)c43)C[C@H]2CC)c(C(=O)N[C@H]2CCN(C)C2)n1 [Compound 1-404, 5-[(2R)-4-(7-cyano-2,3-dihydro-1H-indole-1-carbonyl)-2-ethylpiperazin-1-yl]-2′-ethoxy-N-[(3S)-1-methylpyrrolidin-3-yl]-[2,3′-bipyridine]-6-carboxamide]"
2,< 10,"CCOc1ncccc1-c1ccc(N2CCN(C(=O)N3CCc4cc(F)cc(C#N)c43)C[C@H]2CC)c(C(=O)NC2CN(C)C2)n1 [Compound 1-422, 5-[(2R)-4-(7-cyano-5-fluoro-2,3-dihydro-1H-indole-1-carbonyl)-2-ethylpiperazin-1-yl]-2′-ethoxy-N-(1-methylazetidin-3-yl)-[2,3′-bipyridine]-6-carboxamide]"
3,< 10,"CCOc1ncccc1-c1ccc(N2CCN(C(=O)c3ccc(Cl)cc3C(F)(F)F)C[C@H]2CC)c(C(=O)N[C@@H]2CCN(C)C2)c1F [Compound 1-199, 6-[(2R)-4-[4-chloro-2-(trifluoromethyl)benzoyl]-2-ethylpiperazin-1-yl]-3-(2-ethoxypyridin-3-yl)-2-fluoro-N-[(3R)-1-methylpyrrolidin-3-yl]benzamide]"
4,< 10,"CCOc1ncccc1-c1ccc(N2CCN(C(=O)n3ccc4cc(F)cc(C#N)c43)C[C@H]2CC)c(C(=O)N[C@@H]2CCN(C)C2)n1 [Compound 1-438, 5-[(2R)-4-(7-cyano-5-fluoro-1H-indole-1-carbonyl)-2-ethylpiperazin-1-yl]-2′-ethoxy-N-[(3R)-1-methylpyrrolidin-3-yl]-[2,3′-bipyridine]-6-carboxamide]"
5,< 10,"CCOc1ncccc1-c1ccc(N2CCN(C(=O)c3ccc(Cl)cc3C#N)C[C@H]2CC)c(C(=O)NCCN)c1 [Compound 1-117, N-(2-aminoethyl)-2-[(2R)-4-(4-chloro-2-cyanobenzoyl)-2-ethylpiperazin-1-yl]-5-(2-ethoxypyridin-3-yl)benzamide]"
6,< 10,"CCOc1ncccc1-c1ccc(N2CCN(C(=O)C3(C(F)(F)F)CCCC3)C[C@H]2CC)c(C(=O)NC2CN(C)C2)n1 [Compound 1-241, 2′-ethoxy-5-[(2R)-2-ethyl-4-[1-(trifluoromethyl)cyclopentanecarbonyl]piperazin-1-yl]-N-(1-methylazetidin-3-yl)-[2,3′-bipyridine]-6-carboxamide]"
7,< 10,"CCOc1ncccc1-c1ccc(N2CCN(C(=O)C3(c4ccccc4)CCCC3)C[C@H]2CC)c(C(=O)N[C@@H]2CCNC2)n1 [Compound 1-352, 2′-ethoxy-5-[(2R)-2-ethyl-4-(1-phenylcyclopentanecarbonyl)piperazin-1-yl]-N-[(3R)-pyrrolidin-3-yl]-[2,3′-bipyridine]-6-carboxamide]"
8,< 10,"CCOc1ncccc1-c1ccc(N2CCN(C(=O)c3ccc(C)cc3N3CC[C@H](NC)C3)C[C@H]2CC)c(C(=O)N[C@@H]2CCNC2)c1 [Compound 1-94, 5-(2-ethoxypyridin-3-yl)-2-[(2R)-2-ethyl-4-{4-methyl-2-[(3S)-3-(methylamino)pyrrolidin-1-yl]benzoyl}piperazin-1-yl]-N-[(3R)-pyrrolidin-3-yl]benzamide]"
9,< 10,"CCOc1ncccc1-c1ccc(N2CCN(C(=O)n3ccc4cc(F)cc(Cl)c43)C[C@H]2CC)c(C(=O)N[C@@H]2CCN(C)C2)n1 [Compound 1-425, 5-[(2R)-4-(7-chloro-5-fluoro-1H-indole-1-carbonyl)-2-ethylpiperazin-1-yl]-2′-ethoxy-N-[(3R)-1-methylpyrrolidin-3-yl]-[2,3′-bipyridine]-6-carboxamide]"
10,< 10,"CCOc1ccccc1-c1ccc(N2CCN(C(=O)n3ccc4cccc(C(F)(F)F)c43)C[C@H]2CC)c(C(=O)N[C@@H]2CCN(C)C2)n1 [Compound 1-437, 6-(2-ethoxyphenyl)-3-[(2R)-2-ethyl-4-[7-(trifluoromethyl)-1H-indole-1l-carbonyl]piperazin-1-yl]-N-[(3R)-1-methylpyrrolidin-3-yl]pyridine-2-carboxamide]"
11,< 10,"CCOc1ncccc1-c1ccc(N2CCN(C(=O)N3CCC[C@H]3C(F)(F)F)C[C@H]2CC)c(C(=O)N[C@H]2CCN(C)C2)n1 [Compound 1-373, 2′-ethoxy-5-[(2R)-2-ethyl-4-[(2S)-2-(trifluoromethyl)pyrrolidine-1-carbonyl]piperazin-1-yl]-N-[(3S)-1-methylpyrrolidin-3-yl]-[2,3′-bipyridine]-6-carboxamide]"
12,< 10,"CCOc1ncccc1-c1ccc(N2CCN(C(=O)c3ccc(Cl)cc3C(F)(F)F)C[C@H]2CC)c(C(=O)NCCN(C)C)n1 [Compound 1-150, 5-[(2R)-4-[4-chloro-2-(trifluoromethyl)benzoyl]-2-ethylpiperazin-1-yl]-N-[2-(dimethylamino)ethyl]-2′-ethoxy-[2,3′-bipyridine]-6-carboxamide Acetate]"
13,< 10,"CCOc1ccccc1-c1ccc(N2CCN(C(=O)C3(C(F)(F)F)CCC3)C[C@H]2CC)c(C(=O)N[C@@H]2CCN(C)C2)n1 [Compound 1-344, 6-(2-ethoxyphenyl)-3-[(2R)-2-ethyl-4-[1-(trifluoromethyl)cyclobutanecarbonyl]piperazin-1-yl]-N-[(3R)-1-methylpyrrolidin-3-yl]pyridine-2-carboxamide]"
